{
  "source": "the supplement of paper PMC10307832",
  "experiment_in_all_cases": "relative viability (nuclei count vs DMSO), 5 days (fraction); higher = more cells survive",
  "key": {"NCI-H1651": {"tested_on": "NCI-H1651", "outline": "(§1)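 The day after seeding in 1536-well plates, lung cancer cell lines were treated by pin tool with a single drug, or with a fixed anchor-drug dose together with five library-drug doses (not always all listed) in √10 steps. After 5 days, a combined fix-and-stain solution (final 0.05% Triton X-100, 1% formaldehyde, 1 ug/ml Hoechst) was added. Nuclei counted on 4× images gave relative viability as treated counts over vehicle counts, reported as the median of duplicate plates.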"}, "ABC-1": {"tested_on": "ABC-1", "outline": "as §1"}, "BEN": {"tested_on": "BEN", "outline": "as §1"}, "H3255": {"tested_on": "H3255", "outline": "as §1"}, "201T": {"tested_on": "201T", "outline": "as §1"}, "NCI-H1650": {"tested_on": "NCI-H1650", "outline": "as §1"}, "A-427": {"tested_on": "A-427", "outline": "as §1"}, "NCI-H650": {"tested_on": "NCI-H650", "outline": "as §1"}, "LC-2-ad": {"tested_on": "LC-2-ad", "outline": "as §1"}, "NCI-H727": {"tested_on": "NCI-H727", "outline": "as §1"}, "NCI-H661": {"tested_on": "NCI-H661", "outline": "as §1"}, "HCC-15": {"tested_on": "HCC-15", "outline": "as §1"}, "LCLC-97TM1": {"tested_on": "LCLC-97TM1", "outline": "as §1"}, "NCI-H1915": {"tested_on": "NCI-H1915", "outline": "as §1"}, "NCI-H2087": {"tested_on": "NCI-H2087", "outline": "as §1"}, "CAL-12T": {"tested_on": "CAL-12T", "outline": "as §1"}, "NCI-H441": {"tested_on": "NCI-H441", "outline": "as §1"}, "NCI-H596": {"tested_on": "NCI-H596", "outline": "as §1"}, "PC-3 [JPC-3]": {"tested_on": "PC-3 [JPC-3]", "outline": "as §1"}, "NCI-H2023": {"tested_on": "NCI-H2023", "outline": "as §1"}, "NCI-H520": {"tested_on": "NCI-H520", "outline": "as §1"}, "NCI-H1944": {"tested_on": "NCI-H1944", "outline": "as §1"}, "NCI-H460": {"tested_on": "NCI-H460", "outline": "as §1"}},
  "data": [
    {"smiles": "CC(C)Oc1cc(Nc2nc(N[C@@H](C)c3ccc(F)cn3)ncc2Cl)n[nH]1", "note": "[AZ23] + O=C(CCCCCCC(=O)Nc1ccccc1)NO [Vorinostat] (partner 1 µM)", "values": [
      {"measurement": "relative viability", "setting": "NCI-H1651; first compound 0.01 µM", "value": 0.524},
      {"measurement": "relative viability", "setting": "NCI-H1651; first compound 0.03162 µM", "value": 0.545},
      {"measurement": "relative viability", "setting": "NCI-H1651; first compound 0.3162 µM", "value": 0.584},
      {"measurement": "relative viability", "setting": "ABC-1; first compound 0.01 µM", "value": 0.957},
      {"measurement": "relative viability", "setting": "ABC-1; first compound 0.03162 µM", "value": 1.15},
      {"measurement": "relative viability", "setting": "ABC-1; first compound 0.3162 µM", "value": 1.19},
      {"measurement": "relative viability", "setting": "BEN; first compound 0.01 µM", "value": 0.599},
      {"measurement": "relative viability", "setting": "BEN; first compound 0.03162 µM", "value": 0.659},
      {"measurement": "relative viability", "setting": "BEN; first compound 0.3162 µM", "value": 0.597},
      {"measurement": "relative viability", "setting": "H3255; first compound 0.01 µM", "value": 0.737},
      {"measurement": "relative viability", "setting": "H3255; first compound 0.03162 µM", "value": 0.791},
      {"measurement": "relative viability", "setting": "H3255; first compound 0.3162 µM", "value": 0.867},
      {"measurement": "relative viability", "setting": "201T; first compound 0.01 µM", "value": 1.05},
      {"measurement": "relative viability", "setting": "201T; first compound 0.03162 µM", "value": 1.09},
      {"measurement": "relative viability", "setting": "201T; first compound 0.3162 µM", "value": 1.08},
      {"measurement": "relative viability", "setting": "NCI-H1650; first compound 0.01 µM", "value": 0.441},
      {"measurement": "relative viability", "setting": "NCI-H1650; first compound 0.03162 µM", "value": 1.16},
      {"measurement": "relative viability", "setting": "NCI-H1650; first compound 0.3162 µM", "value": 0.737},
      {"measurement": "relative viability", "setting": "A-427; first compound 0.01 µM", "value": 0.699},
      {"measurement": "relative viability", "setting": "A-427; first compound 0.03162 µM", "value": 0.892},
      {"measurement": "relative viability", "setting": "A-427; first compound 0.3162 µM", "value": 0.988},
      {"measurement": "relative viability", "setting": "NCI-H650; first compound 0.01 µM", "value": 0.411},
      {"measurement": "relative viability", "setting": "NCI-H650; first compound 0.03162 µM", "value": 0.583},
      {"measurement": "relative viability", "setting": "NCI-H650; first compound 0.3162 µM", "value": 0.452},
      {"measurement": "relative viability", "setting": "LC-2-ad; first compound 0.01 µM", "value": 0.86},
      {"measurement": "relative viability", "setting": "LC-2-ad; first compound 0.03162 µM", "value": 0.789},
      {"measurement": "relative viability", "setting": "LC-2-ad; first compound 0.3162 µM", "value": 0.716},
      {"measurement": "relative viability", "setting": "NCI-H727; first compound 0.01 µM", "value": 1.07},
      {"measurement": "relative viability", "setting": "NCI-H727; first compound 0.03162 µM", "value": 1.13},
      {"measurement": "relative viability", "setting": "NCI-H727; first compound 0.3162 µM", "value": 1.37},
      {"measurement": "relative viability", "setting": "NCI-H661; first compound 0.01 µM", "value": 0.814},
      {"measurement": "relative viability", "setting": "NCI-H661; first compound 0.03162 µM", "value": 0.769},
      {"measurement": "relative viability", "setting": "NCI-H661; first compound 0.3162 µM", "value": 0.87},
      {"measurement": "relative viability", "setting": "HCC-15; first compound 0.01 µM", "value": 0.921},
      {"measurement": "relative viability", "setting": "HCC-15; first compound 0.03162 µM", "value": 0.963},
      {"measurement": "relative viability", "setting": "HCC-15; first compound 0.3162 µM", "value": 0.788},
      {"measurement": "relative viability", "setting": "LCLC-97TM1; first compound 0.01 µM", "value": 0.582},
      {"measurement": "relative viability", "setting": "LCLC-97TM1; first compound 0.03162 µM", "value": 0.885},
      {"measurement": "relative viability", "setting": "LCLC-97TM1; first compound 0.3162 µM", "value": 0.396},
      {"measurement": "relative viability", "setting": "NCI-H1915; first compound 0.01 µM", "value": 0.575},
      {"measurement": "relative viability", "setting": "NCI-H1915; first compound 0.03162 µM", "value": 0.526},
      {"measurement": "relative viability", "setting": "NCI-H1915; first compound 0.3162 µM", "value": 0.58},
      {"measurement": "relative viability", "setting": "NCI-H2087; first compound 0.01 µM", "value": 0.969},
      {"measurement": "relative viability", "setting": "NCI-H2087; first compound 0.03162 µM", "value": 0.995},
      {"measurement": "relative viability", "setting": "NCI-H2087; first compound 0.3162 µM", "value": 0.668},
      {"measurement": "relative viability", "setting": "CAL-12T; first compound 0.03162 µM", "value": 1.03},
      {"measurement": "relative viability", "setting": "CAL-12T; first compound 0.3162 µM", "value": 0.88},
      {"measurement": "relative viability", "setting": "NCI-H441; first compound 0.01 µM", "value": 0.825},
      {"measurement": "relative viability", "setting": "NCI-H441; first compound 0.03162 µM", "value": 0.842},
      {"measurement": "relative viability", "setting": "NCI-H441; first compound 0.3162 µM", "value": 0.738},
      {"measurement": "relative viability", "setting": "NCI-H596; first compound 0.01 µM", "value": 0.523},
      {"measurement": "relative viability", "setting": "NCI-H596; first compound 0.03162 µM", "value": 0.622},
      {"measurement": "relative viability", "setting": "NCI-H596; first compound 0.3162 µM", "value": 0.582},
      {"measurement": "relative viability", "setting": "PC-3 [JPC-3]; first compound 0.01 µM", "value": 0.721},
      {"measurement": "relative viability", "setting": "PC-3 [JPC-3]; first compound 0.03162 µM", "value": 0.867},
      {"measurement": "relative viability", "setting": "PC-3 [JPC-3]; first compound 0.3162 µM", "value": 0.826},
      {"measurement": "relative viability", "setting": "NCI-H2023; first compound 0.03162 µM", "value": 0.605},
      {"measurement": "relative viability", "setting": "NCI-H2023; first compound 0.3162 µM", "value": 0.861},
      {"measurement": "relative viability", "setting": "NCI-H520; first compound 0.01 µM", "value": 0.794},
      {"measurement": "relative viability", "setting": "NCI-H520; first compound 0.03162 µM", "value": 0.754},
      {"measurement": "relative viability", "setting": "NCI-H520; first compound 0.3162 µM", "value": 0.609},
      {"measurement": "relative viability", "setting": "NCI-H1944; first compound 0.01 µM", "value": 0.409},
      {"measurement": "relative viability", "setting": "NCI-H1944; first compound 0.03162 µM", "value": 0.625},
      {"measurement": "relative viability", "setting": "NCI-H1944; first compound 0.3162 µM", "value": 0.631},
      {"measurement": "relative viability", "setting": "NCI-H460; first compound 0.01 µM", "value": 0.252},
      {"measurement": "relative viability", "setting": "NCI-H460; first compound 0.03162 µM", "value": 1.06},
      {"measurement": "relative viability", "setting": "NCI-H460; first compound 0.3162 µM", "value": 0.774}
    ]}
  ]
}
